Laboratory results reported in patent US6716625B1, “Histidine kinases of Aspergillus and other fungal species, related compositions, and methods of use” (priority 1997, dated 2004).
*1 amine or outer side, *2 acyl side, *3 side chain or, on linkers, in order; H or OH if unused. Where a SMILES comes first, the peptide text is derived from it. Bridges are numbered along the chain shown (N, C = ends). [ ]: non-standard residue; d: D form. The star is where a group is joined. Orn(4R-OH,5R-OH) = O=C([C@H](C[C@@H](O)[C@@H](O)N[*:3])N[*:1])[*:2]; hTyr(3S-OH,4S-OH) = N[C@H](C(=O)O)[C@H](O)[C@@H](O)c1ccc(O)cc1; Pro(3S-OH,4S-Me) = C[C@H]1CN[C@H](C(=O)O)[C@H]1O; Benzoyl(4-octyloxy) = CCCCCCCCOc1ccc(C(=O)*)cc1; Hyp = O=C(O)[C@@H]1C[C@@H](O)CN1

Legend:
[1] = system: A. fumigatus wild-type and ΔFOS-1 strains; test: Sensitivity to antifungals, variation of NCCLS M27T-protocol (microtiter broth); assay type: cell-based, Aspergillus fumigatus; conditions: 1×RPMI medium, 48 hours, 37° C., 96-well plates
Protocol: Sensitivity to antifungals: To assess the differential sensitivities of the wild-type and ΔFOS-1 strains to a number of antifungal compounds, the minimum inhibitor concentration of amphotericin B, nikkomycin Z, benomyl, miconazole, ketoconazole, fluconazole, cilofungin, 5-fluorocytosine and calcofluor white M2R new against the wild-type and ΔFOS-1 strains was determined. This fungal sensitivity was determined using a variation of the National Committee for Clinical Laboratory Standards (NCCLS) M27T-protocol (Galgiani et al., NCCLS, 15:1-29 [1995]). Briefly, serial dilutions of the anti-fungal drugs were made in 100 μl 1×RPMI medium (Life Technologies) and an additional 100 μl 1×RPMI medium containing 2×10^4 conidia/ml of each strain was added to each well of 96-well microtiter plates. Plates were incubated for 48 hours with gentle shaking at 37° C. The amount of growth in each well was estimated using a inverted phase microscope.

[2] = system: C. albicans wild-type, ΔCOS-1/ΔCOS-1, hemizygous and reconstituted strains; test: Sensitivity of C. albicans COS-1 strains to antifungal drugs in liquid RPMI medium (NCCLS M27-T); assay type: cell-based, Candida albicans
Protocol: For determination of viability and growth, each strain tested was grown from −80° C. stocks overnight at 37° C. in 50 ml of Sabouraud dextrose broth (30 g/L) (Difco, Catalog Number 0382-17-9) in 250 ml flasks with shaking at 180 rpm. Three hundred milliliter Nephelo flasks (Bellco) containing 60 ml medium were inoculated with 1×10^6 cells/ml (final concentration) from the starter culture and incubated at 37° C. with orbital shaking at 180 rpm. The optical density of each culture was determined periodically using a Klett-Summerson Photoelectric Colorimeter (Klett). For cell viability determination, overnight cultures were diluted and known numbers (as determined by hemacytometer counts) were plated onto agar-solidified SD medium and the numbers of resulting colonies determined. The sensitivity of each strain to a number of antifungal drugs in liquid medium was performed essentially as described in the National Committee for Clinical Laboratory Standards (NCCLS) 27T-protocol (Galgiani et al., NCCLS, 15:1-29 [1995]).

[3] = system: A. fumigatus wild-type and ΔFOS-1 strains; test: Effect of oxidative stress compounds on hyphal growth; assay type: cell-based, Aspergillus fumigatus; conditions: agar-solidified MPG medium; diamide 0-2 mM or menadione 0-0.06 mM; 37° C., 3 days
Protocol: Effect of oxidative stress compounds: To determine the effect of various oxidative stress-inducing compounds on hyphal growth in the wild-type and ΔFOS-1 strains, 2 μl water containing 1×10^3 conidia were placed as single spots onto 150 mm×15 mm petri plates containing 30 ml agar-solidified MPG medium. In addition, these agar plates contained either diamide (0-2 mM; Sigma) (an SH residue oxidant that attacks surface proteins; de Souza Pereira and Geibel, J. Mol. Cell Biochem., 201:17-24 [1999]), or menadione (0-0.06 mM; Sigma Aldrich) (a superoxide generator; Caricchio et al., Clin. Immunol., 93:65-74 [1999]). These plates were incubated at 37° C. for 3 days. Hyphal growth/extension rates were determined by recording the distance traveled by hyphal fronts after various times of incubation.

[4] = system: A. fumigatus wild-type strain; test: Dicarboximide drug sensitivity: hyphal extension on agar-solidified MPG medium, wild-type strain; assay type: cell-based, Aspergillus fumigatus; conditions: mean ± standard deviation of at least 12 data points
Protocol: (§1) Although an understanding of the mechanism is not necessary in order to use the present invention, resistance to dicarboximide antifungals by a number of fungi appears to involve a histidine kinase mutation. […] To test if the ΔFOS-1 strain was also resistant to vinclozolin, iprodione and procymidone, the growth of wild-type and ΔFOS-1 strains on medium containing each drug was examined. Briefly, wild-type and ΔFOS-1 conidia (1×10^3 in 2 μl) were inoculated onto agar-solidified MPG medium containing 10 μg/ml vinclozolin or iprodione, or 12 μg/ml procymidone. Hyphal extension rates in mm/hr were recorded, and a mean determined based on at least 12 individual data points. Results are shown±standard deviation. P values were calculated using the Students t test (http://nimitz.mcs.kent.edu/˜blewis/stat/tTest.html).

[5] = system: A. fumigatus ΔFOS-1 strain; test: Dicarboximide drug sensitivity: hyphal extension on agar-solidified MPG medium, ΔFOS-1 strain; assay type: cell-based, Aspergillus fumigatus; conditions: mean ± standard deviation of at least 12 data points
Protocol: as §1

[6] = system: OS-1 mutant strains of N. crassa; conditions: Beever 1983; cited from earlier work
[7] = 10 μg/ml drug in agar-solidified MPG medium
[8] = 12 μg/ml drug in agar-solidified MPG medium

SMILES	Difference in minimum inhibitor concentration between wild-type and ΔFOS-1 strains [1]	Relative sensitivity of wild-type, ΔCOS-1/ΔCOS-1, hemizygous and reconstituted strains [2]	further results
Nc1nc(=O)[nH]cc1F [5-fluorocytosine]	No differences in minimum inhibitor concentration	equally sensitive	–
C[C@@H]1[C@H](O)[C@@H](C)/C=C/C=C/C=C/C=C/C=C/C=C/C=C/[C@H](O[C@@H]2O[C@H](C)[C@@H](O)[C@H](N)[C@@H]2O)C[C@@H]2O[C@](O)(C[C@@H](O)C[C@@H](O)[C@H](O)CC[C@@H](O)C[C@@H](O)CC(=O)O[C@H]1C)C[C@H](O)[C@H]2C(=O)O [amphotericin B]	No differences in minimum inhibitor concentration	equally sensitive	–
CCCCNC(=O)n1c(NC(=O)OC)nc2ccccc21 [benomyl]	No differences in minimum inhibitor concentration	equally sensitive	–
O=S(=O)([O-])c1cc(Nc2nc(Nc3ccccc3)nc(N(CCO)CCO)n2)ccc1/C=C/c1ccc(Nc2nc(Nc3ccccc3)nc(N(CCO)CCO)n2)cc1S(=O)(=O)[O-].[Na+].[Na+] [calcofluor white M2R new]	No differences in minimum inhibitor concentration	–	–
CCCCCCCCOc1ccc(C(=O)N[C@H]2C[C@@H](O)[C@@H](O)NC(=O)[C@@H]3[C@@H](O)[C@@H](C)CN3C(=O)[C@H]([C@@H](C)O)NC(=O)[C@H]([C@H](O)[C@@H](O)c3ccc(O)cc3)NC(=O)[C@@H]3C[C@@H](O)CN3C(=O)[C@H]([C@@H](C)O)NC2=O)cc1 [cilofungin] ({Benzoyl(4-octyloxy)}-[Orn(4R-OH,5R-OH)]T[Hyp][hTyr(3S-OH,4S-OH)]T[Pro(3S-OH,4S-Me)]; lactam 1-C)	No differences in minimum inhibitor concentration	equally sensitive	–
CN(C)C(=O)/N=N/C(=O)N(C)C [diamide]	–	–	Difference in hyphal growth/extension rates between wild-type and ΔFOS-1 strains [3]: No differences in hyphal growth/extension rates
OC(Cn1cncn1)(Cn1cncn1)c1ccc(F)cc1F [fluconazole]	No differences in minimum inhibitor concentration	equally sensitive	–
CC(C)NC(=O)N1CC(=O)N(c2cc(Cl)cc(Cl)c2)C1=O [iprodione]	–	–	Hyphal extension rate, wild-type [4, 7]: 0.29 ± 0.11 mm/hr; Hyphal extension rate, ΔFOS-1 [5, 7]: 0.52 ± 0.03 mm/hr
CC(=O)N1CCN(c2ccc(OCC3COC(Cn4ccnc4)(c4ccc(Cl)cc4Cl)O3)cc2)CC1 (stereo not drawn) [ketoconazole]	No differences in minimum inhibitor concentration	equally sensitive	–
CC1=CC(=O)c2ccccc2C1=O [menadione]	–	–	Difference in hyphal growth/extension rates between wild-type and ΔFOS-1 strains [3]: No differences in hyphal growth/extension rates
Clc1ccc(COC(Cn2ccnc2)c2ccc(Cl)cc2Cl)c(Cl)c1 (stereo not drawn) [miconazole]	No differences in minimum inhibitor concentration	equally sensitive	–
C[C@@H]([C@H](N)C(=O)N[C@H](C(=O)O)[C@H]1O[C@@H](n2ccc(=O)[nH]c2=O)[C@H](O)[C@@H]1O)[C@H](O)c1ccc(O)cn1 [nikkomycin Z]	No differences in minimum inhibitor concentration	equally sensitive	–
CC12CC1(C)C(=O)N(c1cc(Cl)cc(Cl)c1)C2=O (stereo not drawn) [procymidone]	–	–	Hyphal extension rate, wild-type [4, 8]: 0.21 ± 0.13 mm/hr; Hyphal extension rate, ΔFOS-1 [5, 8]: 0.48 ± 0.08 mm/hr
C=CC1(C)OC(=O)N(c2cc(Cl)cc(Cl)c2)C1=O (stereo not drawn) [vinclozolin]	–	equally sensitive	Hyphal extension rate, wild-type [4, 7]: 0.34 ± 0.11 mm/hr; Hyphal extension rate, ΔFOS-1 [5, 7]: 0.50 ± 0.05 mm/hr; Resistance of OS-1 mutant strains [6]: highly resistant
